Each structure is given as a SMILES string.

The term logP denotes the decadic logarithm of the partition coefficient of the neutral form, usually between octanol and water. As for `COC1(NC(=O)C2SC(C(C(=O)O)C(=O)c3ccccc3)S2)C(=O)N2C(C(=O)O)=C(CSc3nnnn3C)CSC21` (stereo unspecified), the logP turned out to be 2.98.
Compound `CNC(=O)C(C(=O)O)=C1SC(C(=O)NC2(OC)C(=O)N3C(C(=O)O)=C(CSc4nnnn4C)CSC32)S1` (stereo unspecified) returned a logP of 1.82.
Regarding `COC1(NC(=O)C2SC(=C(C)C(=O)O)S2)C(=O)N2C(C(=O)O)=C(CSC3=NN=NN(C)C3)CSC21` (stereo unspecified), the logP is 2.66.
In turn, `COC1(NC(=O)C2SC(=CC(=O)O)S2)C(=O)N2C(C(=O)O)=C(CSc3nnnn3C)CSC21` (stereo unspecified) had a logP of 2.19.
In the case of `COC(C(=O)O)=C1SC(C(=O)NC2(OC)C(=O)N3C(C(=O)O)=C(CSc4nnnn4C)CSC32)S1` (stereo unspecified) it was 2; in that of `COC1(NC(=O)CSc2snc(O)c2C(=O)O)C(=O)N2C(C(=O)O)=C(CSc3nnnn3C)CSC21` (stereo unspecified), 1.43.
For `COC1(NC(=O)C2SC(C(C(=O)O)C(=O)N(C)C)S2)C(=O)N2C(C(=O)O)=C(CSc3nnnn3C)CSC21` (stereo unspecified), the logP was 2.01.
In turn, `COC1(NC(=O)C2SC(=C(C(=O)O)S(N)(=O)=O)S2)C(=O)N2C(C(=O)O)=C(CSc3nnnn3C)CSC21` (stereo unspecified) had a logP of 1.25.
Turning to `CCSC(C(=O)O)=C1SC(C(=O)NC2(OC)C(=O)N3C(C(=O)O)=C(CSc4nnnn4C)CSC32)S1` (stereo unspecified), the logP was found to be 2.86.
Compound `COC1(NC(=O)C2SC(=C(C#N)C(=O)O)S2)C(=O)N2C(C(=O)O)=C(CSc3nnnn3C)CSC21` (stereo unspecified) yielded a logP of 1.73.
Compound `COC1(NC(=O)C2SC(=C(SC)C(=O)O)S2)C(=O)N2C(C(=O)O)=C(CSc3nnnn3C)CSC21` (stereo unspecified) came in with a logP of 2.6.
